Holding throughout (assay type): cell-based
For one assay, the system named is Acinetobacter baumannii. As to the kind of experiment: MIC/MBC of nanoemulsions against gram-negative isolates (CLSI, alamar blue). As to conditions: for % resistant / % susceptible / MIC50: Acinetobacter baumannii (n = 5); for MIC50: nanoemulsions in the presence of 5 mM EDTA.
Assay [1] concerns Stenotrophomonas maltophilia. The assay is described as above. The conditions noted are these: for MIC50: Stenotrophomonas maltophilia (n = 5), nanoemulsions in the presence of 5 mM EDTA.
For another assay, the system named is Haemophilus influenzae. As to the kind of experiment: Susceptibility (MIC/MBC) of H. influenzae clinical isolates. As to conditions: for MIC / MIC90: Haemophilus influenzae; for MIC90 / MIC Range: H. influenzae isolates of Table 6.
Assay [2] deals with methicillin-resistant Staphylococcus aureus (MRSA). As to the kind of experiment: Susceptibility (MIC/MBC) of MRSA clinical isolates. The conditions noted are these: Staphylococcus aureus; MRSA isolates; read-out: MIC90.
The next assay concerns Klebsiella pneumoniae. Kind of assay: MIC/MBC of nanoemulsions against gram-negative isolates (CLSI, alamar blue). The conditions noted are these: Klebsiella pneumoniae (n = 5); for MIC50 / MIC Range: nanoemulsions in the presence of 5 mM EDTA; for MIC Range: in µg/mL. In general terms: The colour change of resazurin is a common sign of viable cells or microbes.
The subject of a further assay is Proteus mirabilis. The description is as above. The conditions noted are these: Proteus mirabilis (n = 5); for MIC50 / MIC Range: nanoemulsions in the presence of 5 mM EDTA.
Another assay concerns Escherichia coli. The description is as above. As to conditions: Escherichia coli (n = 5).
A further assay deals with Burkholderia cepacia. The description is as above. The conditions noted are these: Burkholderia cepacia (n = 5), nanoemulsions in the presence of 5 mM EDTA; for MIC Range: in µg/mL.
A further assay deals with Pseudomonas aeruginosa. The assay is described as above. As to conditions: Pseudomonas aeruginosa (n = 5); for MIC50 / MIC Range: nanoemulsions in the presence of 5 mM EDTA.
The mark [3] stands for this setting: strain 30, nanoemulsion values as μg CPC/ml or μg BA/ml.
Where [4] appears, read: strain 32, nanoemulsion values as μg CPC/ml or μg BA/ml.
[5] abbreviates: strain 33, nanoemulsion values as μg CPC/ml or μg BA/ml.
Where [6] appears, read: strain 34, nanoemulsion values as μg CPC/ml or μg BA/ml.
Where [7] appears, read: strain 35, nanoemulsion values as μg CPC/ml or μg BA/ml.
The mark [8] stands for this setting: strain 36, nanoemulsion values as μg CPC/ml or μg BA/ml.
Setting [9] is: strain 37, nanoemulsion values as μg CPC/ml or μg BA/ml.
Setting [10] is: strain 38, nanoemulsion values as μg CPC/ml or μg BA/ml.
[11] abbreviates: strain 41, nanoemulsion values as μg CPC/ml or μg BA/ml.
[12] abbreviates: strain 42, nanoemulsion values as μg CPC/ml or μg BA/ml.
The mark [13] stands for this setting: strain 49247, nanoemulsion values as μg CPC/ml (P4075EC, W205EC) or μg BA/ml (W205GBA2).
Where [14] appears, read: nanoemulsion values as μg CPC/ml or μg BA/ml.
Setting [15] is: nanoemulsions in the presence of 5 mM EDTA.

≈ marks a conversion by molar mass, not a printed value.

The values below come from patent US20100092526A1, “NANOEMULSION THERAPEUTIC COMPOSITIONS AND METHODS OF USING THE SAME” (NanoBio Corporation, priority 2008, published 2010).

Consider `O=C(O)CN(CCN(CC(=O)O)CC(=O)O)CC(=O)O` [EDTA, ethylenediaminetetraacetic acid], for which the “strains inhibited by EDTA alone” value in the assay on Acinetobacter baumannii (5 isolates, 5 mM EDTA) was 3 strains; in assay [1] (5 isolates, 5 mM EDTA) it was 5 strains.

As for `CC1(C)S[C@@H]2[C@H](NC(=O)[C@H](N)c3ccccc3)C(=O)N2[C@H]1C(=O)O` [ampicillin], the MIC with Haemophilus influenzae (setting [3]) is 0.25 µg/mL (≈ 0.715 µM); against Haemophilus influenzae (setting [4]), 32 µg/mL (≈ 91.6 µM); against Haemophilus influenzae (setting [5]), 0.25 µg/mL (≈ 0.715 µM); in the assay with Haemophilus influenzae (setting [6]), over 32 µg/mL; against Haemophilus influenzae (setting [7]), 0.25 µg/mL (≈ 0.715 µM); with Haemophilus influenzae (setting [8]), 0.125 µg/mL (≈ 0.358 µM). Also, the MIC with Haemophilus influenzae (setting [9]) is over 32 µg/mL; in the assay on Haemophilus influenzae (setting [10]) it was 0.25 µg/mL (≈ 0.715 µM); against Haemophilus influenzae (setting [11]), over 32 µg/mL; against Haemophilus influenzae (setting [12]) it was over 32 µg/mL; against Haemophilus influenzae (setting [13]), 4 µg/mL (≈ 11.4 µM). Also, the MIC90 against Haemophilus influenzae (setting [14]) was over 32 µg/mL.

As to `CC[C@H]1OC(=O)[C@H](C)[C@@H](O[C@H]2C[C@@](C)(OC)[C@@H](O)[C@H](C)O2)[C@H](C)[C@@H](O[C@@H]2O[C@H](C)C[C@H](N(C)C)[C@H]2O)[C@](C)(O)C[C@@H](C)CN(C)[C@H](C)[C@@H](O)[C@]1(C)O` [azithromycin], in the assay with Haemophilus influenzae (H. influenzae), the “susceptibility of the majority of isolates by MIC90 values” was “susceptible”. In the assay with Haemophilus influenzae (setting [14]), this compound registered an MIC Range of 1 to 8 µg/mL. The MIC with Haemophilus influenzae (setting [3]) is 2 µg/mL (≈ 2.67 µM); with Haemophilus influenzae (setting [4]), 8 µg/mL (≈ 10.7 µM); in the assay with Haemophilus influenzae (setting [5]) it was 1 µg/mL (≈ 1.34 µM); against Haemophilus influenzae (setting [6]) it was 1 µg/mL (≈ 1.34 µM); against Haemophilus influenzae (setting [7]), 1 µg/mL (≈ 1.34 µM); against Haemophilus influenzae (setting [8]) it was 2 µg/mL (≈ 2.67 µM). Also, the MIC came to 1 µg/mL (≈ 1.34 µM) in the assay with Haemophilus influenzae (setting [9]); 1 µg/mL (≈ 1.34 µM) in the assay with Haemophilus influenzae (setting [10]); 2 µg/mL (≈ 2.67 µM) in the assay with Haemophilus influenzae (setting [11]); 1 µg/mL (≈ 1.34 µM) in the assay with Haemophilus influenzae (setting [12]); 1 µg/mL (≈ 1.34 µM) in the assay on Haemophilus influenzae (setting [13]). The compound further had an MIC90 with Haemophilus influenzae (setting [14]) of 2 µg/mL (≈ 2.67 µM).

`CCC[C@@H]1C[C@@H](C(=O)N[C@@H]([C@H]2O[C@H](SC)[C@H](O)[C@@H](O)[C@H]2O)[C@H](C)Cl)N(C)C1` [clindamycin]: the MIC90 was over 64 µg/mL in assay [2] and 16 µg/mL (≈ 37.6 µM) against Haemophilus influenzae (setting [14]). For the same compound, in the assay on Haemophilus influenzae (setting [14]), the MIC Range fell in the range of 4 to 16 µg/mL. Besides, the MIC against Haemophilus influenzae (setting [3]) turned out to be 16 µg/mL (≈ 37.6 µM); against Haemophilus influenzae (setting [4]), 8 µg/mL (≈ 18.8 µM); in the assay with Haemophilus influenzae (setting [5]) it was 16 µg/mL (≈ 37.6 µM); against Haemophilus influenzae (setting [6]), 16 µg/mL (≈ 37.6 µM); with Haemophilus influenzae (setting [7]), 8 µg/mL (≈ 18.8 µM); with Haemophilus influenzae (setting [8]) it was 16 µg/mL (≈ 37.6 µM). For the same compound, the MIC came to 4 µg/mL (≈ 9.41 µM) against Haemophilus influenzae (setting [9]); 16 µg/mL (≈ 37.6 µM) against Haemophilus influenzae (setting [10]); 8 µg/mL (≈ 18.8 µM) against Haemophilus influenzae (setting [11]); 4 µg/mL (≈ 9.41 µM) against Haemophilus influenzae (setting [12]); 8 µg/mL (≈ 18.8 µM) in the assay on Haemophilus influenzae (setting [13]).

Gentamicin: the “% resistant” value is on record as 0.0% in the assay on Klebsiella pneumoniae; 0.0% in the assay with Proteus mirabilis; 20.0% with Escherichia coli; 20.0% with Acinetobacter baumannii; 0.0% in the assay on Pseudomonas aeruginosa. The “% susceptible” value in the assay on Klebsiella pneumoniae is 100.0%; in the assay with Proteus mirabilis, 100.0%; with Escherichia coli, 80.0%; in the assay with Acinetobacter baumannii, 80.0%; in the assay with Pseudomonas aeruginosa it was 100.0%. The MIC50 was at most 2 µg/mL with Klebsiella pneumoniae; at most 2 µg/mL in the assay on Proteus mirabilis; at most 2 µg/mL in the assay on Escherichia coli (setting [15]); at most 2 µg/mL with Acinetobacter baumannii; over 8 µg/mL in the assay on Burkholderia cepacia; at most 2 µg/mL with Pseudomonas aeruginosa. Also, the MIC50 in assay [1] was over 8 µg/mL. In addition, the “MIC Range” value in the assay on Klebsiella pneumoniae was “<=2”; in the assay with Proteus mirabilis (in µg/mL) it was “<=2”; in the assay on Burkholderia cepacia, over 8; with Pseudomonas aeruginosa, “<=2-4 ^”.

On to Piperacillin/tazobactam, for which the “% resistant” value with Klebsiella pneumoniae stood at 0.0%; in the assay on Proteus mirabilis, 0.0%; with Escherichia coli, 0.0%; with Acinetobacter baumannii, 20.0%; with Pseudomonas aeruginosa, 0.0%. Further, the “% susceptible” value was found to be 80.0% in the assay with Klebsiella pneumoniae; 100.0% in the assay on Proteus mirabilis; 100.0% with Escherichia coli; 80.0% in the assay on Acinetobacter baumannii; 100.0% in the assay with Pseudomonas aeruginosa. In addition, the MIC50 with Klebsiella pneumoniae is 2 µg/mL; with Proteus mirabilis it was at most 0.5 µg/mL; with Escherichia coli (setting [15]) it was 2 µg/mL; with Acinetobacter baumannii, 2 µg/mL; in the assay with Burkholderia cepacia it was 4 µg/mL; with Pseudomonas aeruginosa, 2 µg/mL. Besides, the MIC50 in assay [1] is over 64 µg/mL. For the same compound, the “MIC Range” value is 1-64 in the assay on Klebsiella pneumoniae; “<=0.5-1 ^” with Proteus mirabilis; 1-8 with Escherichia coli (nanoemulsions in the presence of 5 mM EDTA, in µg/mL); 2-32 in the assay on Burkholderia cepacia; 2-16 with Pseudomonas aeruginosa (in µg/mL).

As a reminder, the MIC50 is an inhibitory concentration at the 50% level, which refers to growth in some studies and to a panel of isolates in others.
